One may read the melting point as the temperature of the solid-liquid transition. Consider `CCC(=C(c1ccc(O)cc1)c1ccc(O)cc1)c1cccc(/C=C/C(=O)O)c1` [Example 1, (2E)-3-{3-[1-Ethyl-2,2-bis(4-hydroxyphenyl)ethenyl]phenyl}-2-propenoic acid], for which the melting point was in the range of 280 to 281 °C.

`CCC(=C(c1ccc(O)cc1)c1ccc(O)cc1)c1cccc(-c2c(C)noc2C)c1` [Example 3, 4,4′-{2-[3-(3,5-Dimethyl-4-isoxazolyl)phenyl]-1-butene-1,1-diyl}diphenol] yielded a melting point of 173 to 174 °C.

Values taken from patent US20080255078A1, “Triphenylethylene Compounds Useful as Selective Estrogen Receptor Modulators” (priority 2005, published 2008).
